Converted amounts (≈) assume the structure as drawn.
Columns and labels:
4T1 cells [4T1细胞] [1] = assay: In vitro cytotoxicity test (MTT, 72 h); conditions: Mus musculus, 4T1, 72 h
4T1 cells [4T1细胞] [2] = tested on: 4T1 cells [4T1细胞]

| Structure (SMILES) | IC50 (4T1 cells [4T1细胞] [1]) [mg/L] | cytotoxicity (in words) (4T1 cells [4T1细胞] [2]) |
| --- | --- | --- |
| CC(=O)O[C@@]12CO[C@@H]1C[C@H](O)[C@@]1(C)C(=O)[C@H](O)C3=C(C)[C@@H](OC(=O)[C@H](O)[C@@H](NC(=O)OC(C)(C)C)c4ccccc4)C[C@@](O)([C@@H](OC(=O)c4ccccc4)[C@H]21)C3(C)C [多西他赛] | 0.0265 ± 0.00136 (≈ 0.0328 µM) |  |
| CCCCCC=CCC=CCCCCCCCC(=O)OC(C(=O)OC1CC2(O)C(OC(=O)c3ccccc3)C3C4(OC(C)=O)COC4CC(O)C3(C)C(=O)C(O)C(=C1C)C2(C)C)C(NC(=O)OC(C)(C)C)c1ccccc1 (stereo not drawn) [多西他赛亚油酸酯] | 0.0136 ± 0.00204 (≈ 0.0127 µM) | 细胞毒性强于多西他赛 |

— patent CN108310390A, “多西他赛亚油酸酯及其脂肪乳剂和应用” (Shenyang Pharmaceutical University, priority 2018, dated 2018)
